In patent US9630977B2, “Cephalosporin derivatives and pharmaceutical compositions thereof” (Legochem Biosciences, Inc., priority 2011, dated 2017):
In brackets after ≈: the same amount, converted by molar mass. Like-named read-outs stand apart in the source and are kept apart here.

Tests used:
Test in all cases: In vitro antibacterial activity test (broth microdilution)
Assay type in all cases: cell-based
A. baumannii 46 = tested on: A. baumannii 46
Method: (§1) To evaluate antibacterial activity of each of the compounds of Examples 1 to 68, in vitro antibacterial activity test was performed.
(§2) The in vitro antibacterial activity was evaluated by measuring MIC90 (ug/mL) of each of the compounds of Examples 1 to 68, which is defined as the lowest concentration of an antibiotic that will inhibit the visible growth of 90% of microorganisms after incubation as compared with a control group to which the antibiotic is not treated. MIC90 values were measured by the broth microdilution method developed by the Clinical and Laboratory Standards Institute (CLSI) (see CLSI M7-A5, Methods for Dilution Antimicrobial Susceptibility Test for Bacteria that Grow Aerobically-Fifth Edition (2000): CLSI, Villanova, Pa.).
(§3) In vitro antibacterial activity was measured with respect to the following 19 clinical isolates: M. catarrhalis; P. aeruginosa (5 strains); K. pneumoniae (6 strains); A. baumannii (3 strains); E. coli (2 strains); A. calcoaceticus; and E. cloacae.
(§4) Test compounds each (the cephalosporin derivative compounds prepared in Examples 1 to 68) were dissolved in DMSO at the concentration of 10,240 ug/mL, were diluted by two fold with DMSO, and then were diluted by twenty fold with sterilized distilled water. The final concentration in the antibacterial activity test was in the range of […] to 128 ug/mL, and the final concentration of DMSO used as an adjuvant was 2.5% (V/V).

A. baumannii 49 = tested on: A. baumannii 49
Method: as §1, §2, §3, §4

A. baumannii 52 = settings: Acinetobacter baumannii
Method: as §1, §2, §3, §4

[1] = tested on: A. calcoaceticus ATCC15473; settings: Acinetobacter calcoaceticus
Method: as §1, §2, §3, §4

E. cloacae β19 = settings: Enterobacter cloacae
Method: as §1, §2, §3, §4

E. coli AG100 = settings: Escherichia coli
Method: as §1, §2, §3, §4

E. coli β4 = settings: Escherichia coli
Method: as §1, §2, §3, §4

K. pneumoniae 2011E = settings: Klebsiella pneumoniae, 2011E
Method: as §1, §2, §3, §4

K. pneumoniae β10 = settings: Klebsiella pneumoniae
Method: as §1, §2, §3, §4

K. pneumoniae β11 = settings: Klebsiella pneumoniae
Method: as §1, §2, §3, §4

K. pneumoniae β13 = settings: Klebsiella pneumoniae
Method: as §1, §2, §3, §4

K. pneumoniae β14 = settings: Klebsiella pneumoniae
Method: as §1, §2, §3, §4

K. pneumoniae β9 = settings: Klebsiella pneumoniae
Method: as §1, §2, §3, §4

M. catarrhalis 2524 = settings: Moraxella catarrhalis
Method: as §1, §2, §3, §4

P. aeruginosa 1912E = settings: Pseudomonas aeruginosa, 1912E
Method: as §1, §2, §3, §4

P. aeruginosa 37 = settings: Pseudomonas aeruginosa, 37, P. aeruginosa 37
Method: as §1, §2, §3, §4

P. aeruginosa 40 = tested on: P. aeruginosa 40
Method: as §1, §2, §3, §4

P. aeruginosa 43 = settings: Pseudomonas aeruginosa
Method: as §1, §2, §3, §4

P. aeruginosa 6065Y = settings: Pseudomonas aeruginosa
Method: as §1, §2, §3, §4

[2] = Acinetobacter baumannii, A. baumannii 46, read-out: MIC90
[3] = Acinetobacter baumannii, A. baumannii 49, read-out: MIC90
[4] = A. baumannii 52, read-out: MIC90
[5] = A. calcoaceticus ATCC15473, read-out: MIC90
[6] = AG100, E. coli AG100, read-out: MIC90
[7] = K. pneumoniae 2011E, read-out: MIC90
[8] = K. pneumoniae β10, read-out: MIC90
[9] = K. pneumoniae β11, read-out: MIC90
[10] = K. pneumoniae β13, read-out: MIC90
[11] = K. pneumoniae β9, read-out: MIC90
[12] = M. catarrhalis 2524, read-out: MIC90
[13] = Pseudomonas aeruginosa, 40, P. aeruginosa 40, read-out: MIC90
[14] = P. aeruginosa 43, read-out: MIC90
[15] = Acinetobacter baumannii, 46, A. baumannii 46
[16] = Acinetobacter baumannii, 49, A. baumannii 49
[17] = ATCC15473, A. calcoaceticus ATCC15473

MIC90 (A. baumannii 46; [2])	MIC90 (A. baumannii 49; [3])	MIC90 (A. baumannii 52; [4])	MIC90 [1, 5]	MIC90 (E. cloacae β19; read-out: MIC90)	MIC90 (E. coli AG100; [6])	MIC90 (E. coli β4; read-out: MIC90)	MIC90 (K. pneumoniae 2011E; [7])	MIC90 (K. pneumoniae β10; [8])	MIC90 (K. pneumoniae β11; [9])	MIC90 (K. pneumoniae β13; [10])	MIC90 (K. pneumoniae β14; read-out: MIC90)	MIC90 (K. pneumoniae β9; [11])	MIC90 (M. catarrhalis 2524; [12])	MIC90 (P. aeruginosa 1912E; read-out: MIC90)	MIC90 (P. aeruginosa 37; read-out: MIC90)	MIC90 (P. aeruginosa 40; [13])	MIC90 (P. aeruginosa 43; [14])	MIC90 (P. aeruginosa 6065Y; read-out: MIC90)	SMILES	MIC90 (A. baumannii 46; [15])	also measured
4 µg/mL (≈ 4.99 µM)	8 µg/mL (≈ 9.98 µM)	16 µg/mL (≈ 20 µM)	1 µg/mL (≈ 1.25 µM)	1 µg/mL (≈ 1.25 µM)	< 0.0625 µg/mL	0.125 µg/mL (≈ 0.156 µM)	2 µg/mL (≈ 2.49 µM)	4 µg/mL (≈ 4.99 µM)	16 µg/mL (≈ 20 µM)	< 0.0625 µg/mL	32 µg/mL (≈ 39.9 µM)	< 0.0625 µg/mL	2 µg/mL (≈ 2.49 µM)	0.5 µg/mL (≈ 0.624 µM)	0.125 µg/mL (≈ 0.156 µM)	0.125 µg/mL (≈ 0.156 µM)	0.25 µg/mL (≈ 0.312 µM)	1 µg/mL (≈ 1.25 µM)	CC(C)(O/N=C(\C(=O)N[C@@H]1C(=O)N2C(C(=O)[O-])=C(C[n+]3cnc(N)c(NCCCCNC(=O)c4cc(=O)c(O)cn4O)c3)CSC12)c1csc(N)n1)C(=O)O (some centres unmarked) [Compound 7]	–	–
2 µg/mL (≈ 2.64 µM)	> 128 µg/mL	8 µg/mL (≈ 10.6 µM)	0.25 µg/mL (≈ 0.33 µM)	64 µg/mL (≈ 84.6 µM)	0.25 µg/mL (≈ 0.33 µM)	1 µg/mL (≈ 1.32 µM)	2 µg/mL (≈ 2.64 µM)	0.5 µg/mL (≈ 0.661 µM)	64 µg/mL (≈ 84.6 µM)	0.5 µg/mL (≈ 0.661 µM)	8 µg/mL (≈ 10.6 µM)	2 µg/mL (≈ 2.64 µM)	0.25 µg/mL (≈ 0.33 µM)	1 µg/mL (≈ 1.32 µM)	16 µg/mL (≈ 21.1 µM)	0.25 µg/mL (≈ 0.33 µM)	0.25 µg/mL (≈ 0.33 µM)	2 µg/mL (≈ 2.64 µM)	CC(C)(O/N=C(\C(=O)N[C@@H]1C(=O)N2C(C(=O)[O-])=C(/C=C/C[n+]3cnc(N)c(NC(=O)c4cc(=O)c(O)cn4O)c3)CSC12)c1csc(N)n1)C(=O)O (some centres unmarked) [Compound 14]	–	–
4 µg/mL (≈ 4.98 µM)	16 µg/mL (≈ 19.9 µM)	8 µg/mL (≈ 9.97 µM)	0.5 µg/mL (≈ 0.623 µM)	128 µg/mL (≈ 159 µM)	1 µg/mL (≈ 1.25 µM)	16 µg/mL (≈ 19.9 µM)	16 µg/mL (≈ 19.9 µM)	1 µg/mL (≈ 1.25 µM)	> 128 µg/mL	16 µg/mL (≈ 19.9 µM)	128 µg/mL (≈ 159 µM)	64 µg/mL (≈ 79.7 µM)	1 µg/mL (≈ 1.25 µM)	2 µg/mL (≈ 2.49 µM)	0.5 µg/mL (≈ 0.623 µM)	0.5 µg/mL (≈ 0.623 µM)	2 µg/mL (≈ 2.49 µM)	2 µg/mL (≈ 2.49 µM)	CC(C)(O/N=C(\C(=O)N[C@@H]1C(=O)N2C(C(=O)[O-])=C(C[n+]3cnc(N)c(NC(=O)CCNC(=O)c4cc(=O)c(O)cn4O)c3)CSC12)c1nsc(N)n1)C(=O)O (some centres unmarked) [Compound 19]	–	–

Second part, the compound before the results:

SMILES	MIC90 (A. baumannii 46; [2])	MIC90 (A. baumannii 49; [3])	MIC90 (A. baumannii 52; [4])	MIC90 [1, 5]	MIC90 (E. cloacae β19; read-out: MIC90)	MIC90 (E. coli AG100; [6])	MIC90 (E. coli β4; read-out: MIC90)	MIC90 (K. pneumoniae 2011E; [7])	MIC90 (K. pneumoniae β10; [8])	MIC90 (K. pneumoniae β11; [9])	MIC90 (K. pneumoniae β13; [10])	MIC90 (K. pneumoniae β14; read-out: MIC90)	MIC90 (K. pneumoniae β9; [11])	MIC90 (M. catarrhalis 2524; [12])	MIC90 (P. aeruginosa 1912E; read-out: MIC90)	MIC90 (P. aeruginosa 37; read-out: MIC90)	MIC90 (P. aeruginosa 40; [13])	MIC90 (P. aeruginosa 43; [14])	MIC90 (P. aeruginosa 6065Y; read-out: MIC90)	MIC90 (A. baumannii 46; [15])	also measured
CC(C)(O/N=C(\C(=O)N[C@@H]1C(=O)N2C(C(=O)[O-])=C(/C=C/C[n+]3cnc(N)c(NC(=O)CCN)c3)CSC12)c1nc(N)sc1Cl)C(=O)O (some centres unmarked) [Compound 62]	–	–	–	–	–	–	–	–	–	–	–	–	–	–	–	–	–	–	–	16 µg/mL (≈ 22.6 µM)	MIC90 (A. baumannii 49; [16]): 32 µg/mL (≈ 45.1 µM); MIC90 (A. baumannii 52; 52): 32 µg/mL (≈ 45.1 µM); MIC90 [1, 17]: 1 µg/mL (≈ 1.41 µM); MIC90 (E. cloacae β19): 4 µg/mL (≈ 5.64 µM); MIC90 (E. coli AG100; AG100): 0.5 µg/mL (≈ 0.705 µM); MIC90 (E. coli β4): 0.5 µg/mL (≈ 0.705 µM); MIC90 (K. pneumoniae 2011E): 1 µg/mL (≈ 1.41 µM); MIC90 (K. pneumoniae β10): 0.5 µg/mL (≈ 0.705 µM); MIC90 (K. pneumoniae β11): 1 µg/mL (≈ 1.41 µM); MIC90 (K. pneumoniae β13): 1 µg/mL (≈ 1.41 µM); MIC90 (K. pneumoniae β14): 1 µg/mL (≈ 1.41 µM); MIC90 (K. pneumoniae β9): 1 µg/mL (≈ 1.41 µM); MIC90 (M. catarrhalis 2524; 2524): < 0.0625 µg/mL; MIC90 (P. aeruginosa 1912E): 4 µg/mL (≈ 5.64 µM); MIC90 (P. aeruginosa 37): 8 µg/mL (≈ 11.3 µM); MIC90 (P. aeruginosa 40; Pseudomonas aeruginosa, 40): 8 µg/mL (≈ 11.3 µM); MIC90 (P. aeruginosa 43; 43): 64 µg/mL (≈ 90.2 µM); MIC90 (P. aeruginosa 6065Y; 6065Y): 16 µg/mL (≈ 22.6 µM)
CC(C)(O/N=C(\C(=O)N[C@@H]1C(=O)N2C(C(=O)[O-])=C(C[n+]3cnc(NCCN)c(NCCNC(=O)c4cc(=O)c(O)cn4O)c3)CSC12)c1csc(N)n1)C(=O)O (some centres unmarked) [Compound 5]	–	–	–	–	–	–	–	–	–	–	–	–	–	–	–	–	–	–	–	16 µg/mL (≈ 19.6 µM)	MIC90 (A. baumannii 49; [16]): > 128 µg/mL; MIC90 (A. baumannii 52; 52): > 128 µg/mL; MIC90 [1, 17]: 2 µg/mL (≈ 2.45 µM); MIC90 (E. cloacae β19): 0.5 µg/mL (≈ 0.612 µM); MIC90 (E. coli AG100; AG100): < 0.0625 µg/mL; MIC90 (E. coli β4): 0.5 µg/mL (≈ 0.612 µM); MIC90 (K. pneumoniae 2011E): 2 µg/mL (≈ 2.45 µM); MIC90 (K. pneumoniae β10): 1 µg/mL (≈ 1.22 µM); MIC90 (K. pneumoniae β11): 2 µg/mL (≈ 2.45 µM); MIC90 (K. pneumoniae β13): 0.5 µg/mL (≈ 0.612 µM); MIC90 (K. pneumoniae β14): 8 µg/mL (≈ 9.79 µM); MIC90 (K. pneumoniae β9): < 0.0625 µg/mL; MIC90 (M. catarrhalis 2524; 2524): 0.25 µg/mL (≈ 0.306 µM); MIC90 (P. aeruginosa 1912E): 1 µg/mL (≈ 1.22 µM); MIC90 (P. aeruginosa 37): 1 µg/mL (≈ 1.22 µM); MIC90 (P. aeruginosa 40; Pseudomonas aeruginosa, 40): 1 µg/mL (≈ 1.22 µM); MIC90 (P. aeruginosa 43; 43): 0.25 µg/mL (≈ 0.306 µM); MIC90 (P. aeruginosa 6065Y; 6065Y): 4 µg/mL (≈ 4.9 µM)
